Measured values published in article PMC5434554, “Structural similarities and functional differences clarify evolutionary relationships between tRNA healing enzymes and the myelin enzyme CNPase” (BMC Biochemistry, 2017).

Experiments:
Test in all cases: thermal shift assay, SYPRO Orange
Format in all cases: binding
[1] = target: T1, ScTrl1 PNK/CPDase (Saccharomyces cerevisiae, UniProt P09880); details: 1000 µM; 50 mM HEPES pH 7.5, 150 mM NaCl, 1 mM ligand; ligand-free reference in the 1st table, row 3
T1 construct: gene TRL1; PNK + CPDase domains of Trl1 (C-terminal part, ligase domain absent); N-terminal His6-3C tag cleaved; E. coli Rosetta(DE3); monomer
T1 sequence (P09880 389-827 limits assumed): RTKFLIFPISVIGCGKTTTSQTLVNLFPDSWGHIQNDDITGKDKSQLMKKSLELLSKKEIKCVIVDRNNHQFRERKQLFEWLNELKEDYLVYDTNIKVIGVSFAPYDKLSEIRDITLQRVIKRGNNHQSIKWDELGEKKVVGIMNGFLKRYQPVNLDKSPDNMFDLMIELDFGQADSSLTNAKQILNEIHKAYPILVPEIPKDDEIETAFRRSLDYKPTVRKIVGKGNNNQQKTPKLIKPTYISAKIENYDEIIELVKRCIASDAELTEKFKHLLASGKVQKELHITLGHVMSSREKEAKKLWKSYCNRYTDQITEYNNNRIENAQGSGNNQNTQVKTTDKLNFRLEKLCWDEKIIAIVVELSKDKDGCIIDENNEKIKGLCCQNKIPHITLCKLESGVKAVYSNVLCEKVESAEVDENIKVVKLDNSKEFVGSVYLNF
Description: thermal shift assay, SYPRO Orange on ScTrl1 PNK/CPDase

[2] = target: T2, ScTrl1 CPDase (Saccharomyces cerevisiae, UniProt P09880); details: 1000 µM; 50 mM HEPES pH 7.5, 150 mM NaCl, 1 mM ligand; ligand-free reference in the 1st table, row 6
T2 construct: gene TRL1; not the N+ or N- variants; N-terminal His6-3C tag cleaved; E. coli Rosetta(DE3); monomer
T2 sequence (P09880 561-827 limits assumed): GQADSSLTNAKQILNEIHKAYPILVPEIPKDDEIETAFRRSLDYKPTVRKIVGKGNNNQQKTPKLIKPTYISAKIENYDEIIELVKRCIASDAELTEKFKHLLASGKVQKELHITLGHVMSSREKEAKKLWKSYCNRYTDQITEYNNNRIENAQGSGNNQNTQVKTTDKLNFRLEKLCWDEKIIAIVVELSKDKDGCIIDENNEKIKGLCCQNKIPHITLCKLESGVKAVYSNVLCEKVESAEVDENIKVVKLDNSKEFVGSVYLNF
Description: thermal shift assay, SYPRO Orange on ScTrl1 CPDase

[3] = target: T3, BfPNK/CPDase (Branchiostoma floridae, UniProt A0A9J7HK91); details: 1000 µM; 50 mM HEPES pH 7.5, 150 mM NaCl, 1 mM ligand; ligand-free reference in the 1st table, row 9
T3 construct: gene LOC118405679; full length; N-terminal His6-3C tag cleaved; from E. coli Rosetta(DE3); monomer under reducing conditions
T3 sequence (A0A9J7HK91 entry or part of it): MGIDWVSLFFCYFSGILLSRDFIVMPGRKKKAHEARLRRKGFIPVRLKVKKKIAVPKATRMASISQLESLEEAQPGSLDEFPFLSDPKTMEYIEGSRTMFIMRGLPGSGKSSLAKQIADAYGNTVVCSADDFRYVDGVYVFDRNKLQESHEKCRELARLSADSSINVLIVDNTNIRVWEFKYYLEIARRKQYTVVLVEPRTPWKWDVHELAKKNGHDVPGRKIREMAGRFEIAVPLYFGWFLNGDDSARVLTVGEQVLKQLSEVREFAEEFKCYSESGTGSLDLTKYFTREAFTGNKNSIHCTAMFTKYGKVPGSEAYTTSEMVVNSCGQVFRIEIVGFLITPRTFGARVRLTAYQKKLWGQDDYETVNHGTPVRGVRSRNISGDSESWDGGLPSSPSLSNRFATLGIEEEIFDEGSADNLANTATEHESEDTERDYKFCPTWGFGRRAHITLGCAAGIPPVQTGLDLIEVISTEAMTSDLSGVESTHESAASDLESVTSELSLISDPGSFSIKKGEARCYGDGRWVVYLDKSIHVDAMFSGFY
Description: thermal shift assay, SYPRO Orange on BfPNK/CPDase

## NC(=O)c1ccc[n+]([C@@H]2O[C@H](COP(=O)(O)OP(=O)(O)OC[C@H]3O[C@@H](n4cnc5c(N)ncnc54)[C@@H]4OP(=O)(O)O[C@@H]43)[C@@H](O)[C@H]2O)c1 [2′,3′-cNADP^+]
[1]
  Tm (°C): 63 °C
[2]
  Tm (°C): 72 °C
[3]
  Tm (°C): 48 °C
